Reference: patent EP0412158A1, “ONCOSTATIC DRUG” (priority 1987, dated 1988)
Like-named read-outs stand apart in the source and are kept apart here. Marks after values point to notes of the source that are not given here.

Key:
MM-46 breast cancer = format: in vivo, female C3H/He mice; details: for T/C: tumor weight
Method: The heteropoly acid salt (Compound M) mentioned above was dissolved in distilled water to obtain an aqueous solution containing the compound in a concentration of 10 mg/ml. This aqueous solution was administered to female C3H/He mice (five weeks old) to which MM-46 breast cancer had been transplanted, to test the compound for antineoplastic activity. To be more specific, the MM-46 breast cancer was transplanted to the mice in a ratio of 1.0 x 10^5 cells per mouse and the aqueous solution was administered (at a dose of 100 mg and a dose of 200 mg per kg of body weight) intraperitoneally (ip) or orally (po) for 9 consecutive days. After elapse of 14 days following the stop of the administration, the sizes of tumor were measured. For comparison, mice to which no aqueous solution was administered were similarly tested.

human lung cancer (OAT) = format: in vivo, female nude mice; details: 200 mg/kg ip ×10; for T/C: tumor volume
Method: A patch of human lung cancer [Cancer cells recommended by National Cancer Institute (NCL) of the U.S.A.] (OAT) measuring approximately 2 x 2 mm in area was subcutaneously transplanted to each of female nude mice. An aqueous solution containing the aforementioned heteropoly acid salt (Compound M) in a concentration of 10 mg/ml was administered by intraperitoneal injection (ip) to the mice at a dose of 200 mg/kg once per day for 10 consecutive days following the 12th day of transplantation. For 15 days following the stop of the administration, the volumes of tumor in the mice were measured to evaluate the effect of compound. At ip (x 10), significant suppression of hyperplasia began to appear about the 4th day. Even after completion of the administration 25th day of the transplantation, strong suppression of hyperplasia of cancer of about 50% was maintained. Generally by the NCI standard, a ratio of suppression exceeding 50% is rated as effective. Thus, the compound was confirmed to be effective. For comparison, mice to which no aqueous solution was administered were similarly tested.

Nas [IMo6O24] • 34H2O [Compound M]
Average weight of tumor 21 days after transplantation ±SE (MM-46 breast cancer; 100 mg/kg/day ip×9): 560±283(6) mg | Number of tumorless mice /total number of mice (MM-46 breast cancer; 100 mg/kg/day ip×9): 0/6 | T/C (MM-46 breast cancer; 100 mg/kg/day ip×9): 0.277 | Average weight of tumor 21 days after transplantation ±SE (MM-46 breast cancer; 200 mg/kg/day po×9): 572±76(6) mg | Number of tumorless mice /total number of mice (MM-46 breast cancer; 200 mg/kg/day po×9): 0/7 | T/C (MM-46 breast cancer; 200 mg/kg/day po×9): 0.258 | suppression of hyperplasia of cancer (human lung cancer (OAT); after completion of the administration, 25th day): about 50% | Volume of tumor, Average value±SE (human lung cancer (OAT); day 1): 457.6±59.3 mm3 | Volume of tumor, Average value±SE (human lung cancer (OAT); day 2): 501.7±32.9 mm3 | T/C (human lung cancer (OAT); day 2): 65.2* % | Volume of tumor, Average value±SE (human lung cancer (OAT); day 3): 617.0±165.7 mm3 | T/C (human lung cancer (OAT); day 3): 58.3% | Volume of tumor, Average value±SE (human lung cancer (OAT); day 4): 610.0±118.1 mm3 | T/C (human lung cancer (OAT); day 4): 40.9** % | Volume of tumor, Average value±SE (human lung cancer (OAT); day 5): 711.2±109.2 mm3 | T/C (human lung cancer (OAT); day 5): 40.8** % | Volume of tumor, Average value±SE (human lung cancer (OAT); day 6): 1003.6±188.6 mm3 | T/C (human lung cancer (OAT); day 6): 39.9** % | Volume of tumor, Average value±SE (human lung cancer (OAT); day 7): 1033.6±121.5 mm3 | T/C (human lung cancer (OAT); day 7): 26.0** % | Volume of tumor, Average value±SE (human lung cancer (OAT); day 8): 1257.8±166.2 mm3 | T/C (human lung cancer (OAT); day 8): 27.7** % | Volume of tumor, Average value±SE (human lung cancer (OAT); day 12): 2366.6±364.0 mm3 | T/C (human lung cancer (OAT); day 12): 41.6** % | Volume of tumor, Average value±SE (human lung cancer (OAT); day 15): 4493.2±562.2 mm3 | T/C (human lung cancer (OAT); day 15): 48.0** % | Volume of tumor, Average value±SE (human lung cancer (OAT); day 19): 5735.0±1038.1 mm3 | T/C (human lung cancer (OAT); day 19): 43.3** % | Volume of tumor, Average value±SE (human lung cancer (OAT); day 22): 8493.2±1352.2 mm3 | T/C (human lung cancer (OAT); day 22): 54.8** % | Volume of tumor, Average value±SE (human lung cancer (OAT); day 25): 9672.6±1638.0 mm3 | T/C (human lung cancer (OAT); day 25): 53.2** %
